From BindingDB's records for doi:10.1007/s002100000299 (University of Oslo, 2001)
Several values for one entry are separate records, joined by “and”; a condition that tells them apart may be missing. Equal entries are not always repeated.

Molecular target: 5-hydroxytryptamine receptor 4 (Homo sapiens, UniProt Q13639)
Sequence (Q13639 whole entry): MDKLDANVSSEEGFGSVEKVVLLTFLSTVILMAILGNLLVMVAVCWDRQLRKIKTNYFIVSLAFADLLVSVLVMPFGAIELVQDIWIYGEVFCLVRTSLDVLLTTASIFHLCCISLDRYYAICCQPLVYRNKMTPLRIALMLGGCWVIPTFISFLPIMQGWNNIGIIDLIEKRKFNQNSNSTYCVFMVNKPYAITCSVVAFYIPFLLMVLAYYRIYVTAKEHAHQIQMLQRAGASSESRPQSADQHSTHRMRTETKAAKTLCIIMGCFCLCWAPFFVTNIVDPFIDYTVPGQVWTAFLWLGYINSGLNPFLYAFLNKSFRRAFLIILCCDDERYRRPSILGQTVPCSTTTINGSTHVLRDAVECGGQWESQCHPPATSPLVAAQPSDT

| Structure (SMILES) | Ki |
| --- | --- |
| CN1C2CCC1CC(OC(=O)c1c[nH]c3ccccc13)C2 (stereo not given) | 158 nM and 79.4 nM |
| O=C(OCCN1CCCCC1)c1c[nH]c2ccccc12 [CAS_135938-17-9] | 2 nM and 1.3 nM |
| NCCc1c[nH]c2ccc(C(N)=O)cc12 [[3H]-5-carboxamidotryptamine] | > 10000 nM |
| COc1ccc2[nH]cc(CCN)c2c1 [tryptamine, 5-Methoxy] | 316 nM and 251 nM |
| Cn1cc(C(=O)OCC2CCN(CCNS(C)(=O)=O)CC2)c2ccccc21 [GR 113808] | 0.079 nM and 0.05 nM |
